According to patent US4853221A, “Method for treating non-small cell lung cancer, head and neck cancers and breast cancer” (Warner-Lambert Company, priority 1987, dated 1989):

Key:
L1210 cells = experiment: Inhibition of L1210 cell growth in vitro; format: cell-based, murine
Experimental: (§1) Two leukemia cell lines (L1210 and L5178Y) and two solid tumor cell lines (Sarcoma 180 and Walker 256) were used in these studies.
(§2) Logarithmically growing L1210 cells (approximately 3×10^5 cells/ml) were diluted with Fischer's medium (containing 10% horse serum) to an approximate concentration of 5×10^4 cells/ml. Cells were planted in duplicate into 15 ml culture tubes containing either no drug or various amounts of drug, and incubated for 48 hours at 37° C. before being counted.
*ED50 = the concentration of drug required to reduce the cell count
to 50%, determined by plotting the cell count versus drug concentration.

Walker-256 = experiment: Inhibition of Walker-256 cell growth in vitro; format: cell-based; details: Mus musculus, 48 h; Murine Walker-256; read-out: ED50 (the source's name)
Experimental: as §1, §2
Trimetrexate was also evaluated in a similar manner side-by-side with methotrexate for its effect on the growth of three additional murine cell lines (L5178Y, Sarcoma-180, and Walkler-256) and three human cell lines (acute myelogenous leukemia K-562, T-cell 8402, and B-cell 8392), propagated in vitro.

Colon tumor = experiment: Human tumor cloning system, colon tumors; format: cell-based; details: one hour, 9 specimens
From the text: The activity of trimetrexate was compared with that of methotrexate in tests with a human tumor cloning system (Latham, et al., Proc. Am. Assoc. Cancer Res., 24: 278 (1983)). The data from these tests appear in Table III were the activities are expressed as the numbers of tumors with 50% or greater reduction in tumor colony forming units after one hour exposure to the drug.

P388 murine leukemia = experiment: Schedule dependence against P388 murine leukemia; format: in vivo, mouse
Experimental: In the L1210, P388, and B-16 melanoma models, results are expressed as a percentage of median control survival time. Percentage of increase in survival time and/or cures (30 day survivors) were the parameters used to measure the effectiveness of the agents.
Percent increase in median life span (% ILS) values appearing in the tables were calculated from the formula; 100×(median life span in days of treated mice minus median life span in days of untreated mice) divided by median life span in days of untreated control mice. That is, % ILS=[100×(T-C)]/C. % T/C and %ILS are directly interconvertible by the formula % ILS=% T/C -100.
L1210 Leukemic Cells (10^5 /mouse) and P388 leukemic cells (10^6 /mouse)were in the ascites form and were transferred to BD2F1 or CD2F1 mice by intraperitoneal (ip) injection of 0.1 ml of cells taken from animals bearing 6- to 7-day old tumors. Leukemic cells were injected ip one day prior to the start of treatment.
The dose schedule dependence of trimetrexate was tested against transplanted P388 leukemia using the protocol outlined above.

[1] = test system: Early Stage P388 Leukemia; experiment: Combination chemotherapy, therapeutic synergy against early stage P388 leukemia; format: in vivo, mouse; details: Test 1
Experimental: Several studies were carried out to determine the potential for therapeutic synergy of trimetrexate with several clinically active anticancer agents. […] (See, for example, Vendetti, "Relevance of Transplantable Animal-Tumor Systems to the Selection of New Agents for Clinical Trial," Pharmacological Basis of Cancer Chemotherapy. Williams and Wilkins, Baltimore, 1975, and Simpson Herren, et al., "Evaluation of In Vivo Tumor Models for Predicting Clinical Activity for Anticancer Drugs," Proc. Am. Assoc. Cancer Res., 26: 330 (1985).
Differences in cell kill of greater than ten-fold (one log) were considered indicative of therapeutic synergy.
CD2F1 mice were quarantined for at least two weeks prior to allocation to test groups. P388 leukemia was passaged in DBA2 mice according to standard protocols of the National Cancer Institute. On Day 0 of a given test, all mice in the test were randomized, injected intraperitoneally with suitably diluted ascites fluid from P388 tumor-bearing donor mice and rerandomized to test cages.
The initial inoculum for all but titration groups was 10^6 cells as determined by hemocytometer count. Each experiment contained an internal control and tumor titration which enabled the determination of the tumor doubling time and estimates of the log cell kill and number of tumor cells surviving treatment.
Drug treatment was begun either on Day 1 or on Day 4 depending upon the relative activity of the agents being tested.
All of the drugs were injected within one hour of dissolution, with the exception of trimetrexate which was made up fresh twice daily. All mice were treated on the basis of average cage-group weight.
In drug combination regimens, trimetrexate was given approximately 30 minutes before the other therapeutic agents when the route of administration of the other agent was ip. […]
Group average weights were determined for all groups on Days 1, 5, and 9 for "early stage" P388 tests and on Days 4, 8, and 12 for "advanced stage" P388 tests. Animals were monitored for life span. […]

salivary gland cancer = experiment: Phase I clinical trials, salivary gland cancer; format: in vivo, human; details: single agent
Experimental: Several Phase I clinical trials employing trimetrexate in human patients were carried out. In one study, 36 patients were treated with trimetrexate as a single agent at daily doses of 0.5 mg/m^2 /day to 12 mg/m^2 /day administered intravenously for five days.
In additional Phase I clinical studies, patients were administered trimetrexate with single intravenous doses ranging between 5 and 450 mg/m^2 and with weekly doses of slightly greater than 100 mg/m^2.

dihydrofolate reductase = experiment: Inhibition of dihydrofolate reductase; format: biochemical
[2] = 13 mg/kg, every 3 hours, daily, Days 1, 5, and 9
[3] = 20 mg/kg, every 3 hours, daily, Days 1, 5, and 9
[4] = 30 mg/kg, every 3 hours, daily, Days 1, 5, and 9
[5] = 45 mg/kg, every 3 hours, daily, Days 1, 5, and 9

**Q.** What does the source list for `COc1cc(NCc2ccc3nc(N)nc(N)c3c2C)cc(OC)c1OC` [Trimetrexate, 5-methyl-6-[[(3,4,5-trimethoxyphenyl)amino]methyl]-2,4-quinazolinediamine]?
**A.** inhibition of L1210 cell growth (L1210 cells): potent inhibitor of L1210 cell growth; IC50 (L1210 cells; Mus musculus, L1210, concentration required to reduce the cell count to 50%, 48 hours at 37° C, read-out: ED50 for L1210 Cells): 7 nM; IC50 (Walker-256): 5 nM; Number of Tumors with 50% or Greater Decrease in Tumor Colony Forming Units (Colon tumor; trimetrexate 0.1 μg/ml): 4; Number of Tumors with 50% or Greater Decrease in Tumor Colony Forming Units (Colon tumor; trimetrexate 1.0 μg/ml): 4; % T/C (P388 murine leukemia; [2]): 185%; Weight Change (P388 murine leukemia; [2]): 1.0 Grams; % T/C (P388 murine leukemia; [3]): 194%; Weight Change (P388 murine leukemia; [3]): -0.2 Grams; % T/C (P388 murine leukemia; 22 mg/kg, Days 1 and 9): 164%; Weight Change (P388 murine leukemia; 22 mg/kg, Days 1 and 9): 1.8 Grams; % T/C (P388 murine leukemia; [4]): 203%; Weight Change (P388 murine leukemia; [4]): 0.6 Grams; % T/C (P388 murine leukemia; 33 mg/kg, Days 1 and 9): 169%; Weight Change (P388 murine leukemia; 33 mg/kg, Days 1 and 9): 0.8 Grams; % T/C (P388 murine leukemia; [5]): 212%; Weight Change (P388 murine leukemia; [5]): -1.7 Grams; % T/C (P388 murine leukemia; 50 mg/kg, Days 1 and 9): 166%; Weight Change (P388 murine leukemia; 50 mg/kg, Days 1 and 9): 0.3 Grams; % T/C (P388 murine leukemia; 53 mg/kg, Day 1 only): 100%; % T/C (P388 murine leukemia; 53 mg/kg, Days 1, 5, and 9): 116%; Weight Change (P388 murine leukemia; 53 mg/kg, Days 1, 5, and 9): 2.9 Grams; % T/C (P388 murine leukemia; 75 mg/kg, Days 1 and 9): 181%; Weight Change (P388 murine leukemia; 75 mg/kg, Days 1 and 9): -2.6 Grams; % T/C (P388 murine leukemia; 80 mg/kg, Day 1 only): 104%; % T/C (P388 murine leukemia; 80 mg/kg, Days 1, 5, and 9): 119%; Weight Change (P388 murine leukemia; 80 mg/kg, Days 1, 5, and 9): 1.3 Grams; % T/C (P388 murine leukemia; 120 mg/kg, Day 1 only): 113%; % T/C (P388 murine leukemia; 120 mg/kg, Days 1, 5, and 9): 154%; Weight Change (P388 murine leukemia; 120 mg/kg, Days 1, 5, and 9): -2.5 Grams; % T/C (P388 murine leukemia; 180 mg/kg, Day 1 only): 12%; % T/C (P388 murine leukemia; 180 mg/kg, Days 1, 5, and 9): 9%; optimal dose regimen (P388 murine leukemia; every three hours on Days 1, 5, and 9, minimal weight loss and maximum life span response): about 30 mg/kg/injection; single agent activity [1]: the more active of the two single agents; patients with favorable responses (salivary gland cancer): two; inhibition of dihydrofolate reductase (dihydrofolate reductase): potent inhibitor
